{"source": "patent US8592174B2", "about": "“Peptidase substrates” (bioMérieux, S.A., priority 2009, dated 2013)", "experiment_in_all_cases": "pH variation detection on modified chromID Coli medium (Example 6)", "format_in_all_cases": "cell-based", "design_in_all_cases": "Coloration strength: key to the marks not given beside the values", "settings_in_all_cases": "50 mg/l, 24 h 37° C.", "key": {"[1]": {"test_system": "Morganella morganii ssp morganii 97 08 046", "description": "(§1) The media were incubated for 24 hours at 37° C., then the spots formed were examined visually."}, "[2]": {"test_system": "Klebsiella pneumoniae ssp pneumoniae 73 08 012", "description": "as §1"}, "[3]": {"test_system": "Escherichia hermannii 04 03 161", "description": "as §1"}, "E. coli 05 06 043": {"test_system": "E. coli 05 06 043", "description": "as §1"}, "[4]": {"test_system": "Enterobacter amnigenus 05 06 046", "description": "as §1"}, "[5]": {"test_system": "Raoultella ornithinolytica 05 04 140", "description": "as §1"}, "[6]": {"test_system": "Proteus vulgaris 04 05 062", "description": "as §1"}, "[7]": {"test_system": "Enterobacter intermedius 05 04 110", "description": "as §1"}, "[8]": {"test_system": "Cedecea lapagei 05 04 130", "description": "as §1"}, "[9]": {"test_system": "Citrobacter koseri 75 08 021", "description": "as §1"}, "[10]": {"test_system": "Edwarsiella tarda 75 07 053", "description": "as §1"}, "[11]": {"test_system": "Rahnella aquatilis 05 04 103", "description": "as §1"}, "[12]": {"test_system": "Pectobacterium carotovorum 84 06 059", "description": "as §1"}, "[13]": {"test_system": "Leclercia adecarboxylata 97 04 041", "description": "as §1"}, "E. coli 05 06 052": {"test_system": "E. coli 05 06 052", "description": "as §1"}, "[14]": {"test_system": "Providencia stuartii 92 12 101", "description": "as §1"}, "[15]": {"test_system": "Enterobacter cloacae 05 09 064", "description": "as §1"}, "Shigella spp 76 02 055": {"test_system": "Shigella spp 76 02 055", "description": "as §1"}, "[16]": {"test_system": "Yersinia enterocolitica 05 04 143", "description": "as §1"}, "[17]": {"test_system": "Serratia liquefaciens 05 04 117", "description": "as §1"}, "[18]": {"test_system": "Shigella boydii 00 04 212", "description": "as §1"}, "[19]": {"test_system": "Klebsiella oxytoca 05 04 175", "description": "as §1"}, "E. coli 78 12 004": {"test_system": "E. coli 78 12 004", "description": "as §1"}, "[20]": {"test_system": "Escherichia vulneris 85 06 777", "description": "as §1"}, "[21]": {"test_system": "Buttiauxella agrestis 05 04 166", "description": "as §1"}, "[22]": {"test_system": "Yersinia enterocolitica ssp enterocolitica 92 11 061", "description": "as §1"}, "[23]": {"test_system": "Shigella sonnei 92 11 060", "description": "as §1"}}, "data": [{"smiles": "Nc1ccc(C=Cc2ccnc3ccccc23)cc1", "values": [{"measurement": "Color", "setting": "[1]", "value": "Orange"}, {"measurement": "Coloration strength", "setting": "[1]", "value": "++"}, {"measurement": "Growth", "setting": "[1]; control C: ++", "value": "++"}, {"measurement": "Color", "setting": "[2]", "value": "Orange"}, {"measurement": "Coloration strength", "setting": "[2]", "value": "++"}, {"measurement": "Growth", "setting": "[2]; control C: ++", "value": "++"}, {"measurement": "Color", "setting": "[3]", "value": "Orange"}, {"measurement": "Coloration strength", "setting": "[3]", "value": "++"}, {"measurement": "Growth", "setting": "[3]; control C: ++", "value": "++"}, {"measurement": "Color", "setting": "E. coli 05 06 043", "value": "Orange"}, {"measurement": "Coloration strength", "setting": "E. coli 05 06 043", "value": "++"}, {"measurement": "Growth", "setting": "E. coli 05 06 043; control C: ++", "value": "++"}, {"measurement": "Color", "setting": "[4]", "value": "Orange"}, {"measurement": "Coloration strength", "setting": "[4]", "value": "++"}, {"measurement": "Growth", "setting": "[4]; control C: ++", "value": "++"}, {"measurement": "Color", "setting": "[5]", "value": "Orange"}, {"measurement": "Coloration strength", "setting": "[5]", "value": "++"}, {"measurement": "Growth", "setting": "[5]; control C: ++", "value": "++"}, {"measurement": "Color", "setting": "[6]", "value": "Orange"}, {"measurement": "Coloration strength", "setting": "[6]", "value": "++"}, {"measurement": "Growth", "setting": "[6]; control C: ++", "value": "++"}, {"measurement": "Color", "setting": "[7]", "value": "Orange"}, {"measurement": "Coloration strength", "setting": "[7]", "value": "++"}, {"measurement": "Growth", "setting": "[7]; control C: ++", "value": "+"}, {"measurement": "Color", "setting": "[8]", "value": "Orange"}, {"measurement": "Coloration strength", "setting": "[8]", "value": "++"}, {"measurement": "Growth", "setting": "[8]; control C: ++", "value": "++"}, {"measurement": "Color", "setting": "[9]", "value": "Orange"}, {"measurement": "Coloration strength", "setting": "[9]", "value": "++"}, {"measurement": "Growth", "setting": "[9]; control C: ++", "value": "++"}, {"measurement": "Color", "setting": "[10]", "value": "Orange"}, {"measurement": "Coloration strength", "setting": "[10]", "value": "++"}, {"measurement": "Growth", "setting": "[10]; control C: ++", "value": "++"}, {"measurement": "Color", "setting": "[11]", "value": "Orange"}, {"measurement": "Coloration strength", "setting": "[11]", "value": "++"}, {"measurement": "Growth", "setting": "[11]; control C: ++", "value": "++"}, {"measurement": "Color", "setting": "[12]", "value": "Orange"}, {"measurement": "Coloration strength", "setting": "[12]", "value": "++"}, {"measurement": "Growth", "setting": "[12]; control C: ++", "value": "+"}, {"measurement": "Color", "setting": "[13]", "value": "Orange"}, {"measurement": "Coloration strength", "setting": "[13]", "value": "++"}, {"measurement": "Growth", "setting": "[13]; control C: ++", "value": "++"}, {"measurement": "Color", "setting": "E. coli 05 06 052", "value": "Orange"}, {"measurement": "Coloration strength", "setting": "E. coli 05 06 052", "value": "++"}, {"measurement": "Growth", "setting": "E. coli 05 06 052; control C: ++", "value": "++"}, {"measurement": "Color", "setting": "[14]", "value": "Orange"}, {"measurement": "Coloration strength", "setting": "[14]", "value": "++"}, {"measurement": "Growth", "setting": "[14]; control C: ++", "value": "++"}, {"measurement": "Color", "setting": "[15]", "value": "Orange"}, {"measurement": "Coloration strength", "setting": "[15]", "value": "++"}, {"measurement": "Growth", "setting": "[15]; control C: ++", "value": "++"}, {"measurement": "Color", "setting": "Shigella spp 76 02 055", "value": "Orange"}, {"measurement": "Coloration strength", "setting": "Shigella spp 76 02 055", "value": "++"}, {"measurement": "Growth", "setting": "Shigella spp 76 02 055; control C: ++", "value": "++"}, {"measurement": "Color", "setting": "[16]", "value": "Orange"}, {"measurement": "Coloration strength", "setting": "[16]", "value": "++"}, {"measurement": "Growth", "setting": "[16]; control C: ++", "value": "+"}, {"measurement": "Color", "setting": "[17]", "value": "Orange"}, {"measurement": "Coloration strength", "setting": "[17]", "value": "++"}, {"measurement": "Growth", "setting": "[17]; control C: ++", "value": "++"}, {"measurement": "Color", "setting": "[18]", "value": "Orange"}, {"measurement": "Coloration strength", "setting": "[18]", "value": "++"}, {"measurement": "Growth", "setting": "[18]; control C: ++", "value": "++"}, {"measurement": "Color", "setting": "[19]", "value": "Orange"}, {"measurement": "Coloration strength", "setting": "[19]", "value": "++"}, {"measurement": "Growth", "setting": "[19]; control C: ++", "value": "++"}, {"measurement": "Color", "setting": "E. coli 78 12 004", "value": "Orange"}, {"measurement": "Coloration strength", "setting": "E. coli 78 12 004", "value": "++"}, {"measurement": "Growth", "setting": "E. coli 78 12 004; control C: ++", "value": "++"}, {"measurement": "Color", "setting": "[20]", "value": "Orange"}, {"measurement": "Coloration strength", "setting": "[20]", "value": "++"}, {"measurement": "Growth", "setting": "[20]; control C: ++", "value": "++"}, {"measurement": "Color", "setting": "[21]", "value": "Orange"}, {"measurement": "Coloration strength", "setting": "[21]", "value": "++"}, {"measurement": "Growth", "setting": "[21]; control C: ++", "value": "++"}, {"measurement": "Color", "setting": "[22]", "value": "Orange"}, {"measurement": "Coloration strength", "setting": "[22]", "value": "++"}, {"measurement": "Growth", "setting": "[22]; control C: ++", "value": "++"}, {"measurement": "Color", "setting": "[23]", "value": "Orange"}, {"measurement": "Coloration strength", "setting": "[23]", "value": "++"}, {"measurement": "Growth", "setting": "[23]; control C: ++", "value": "++"}]}]}
